Reference: patent US20220288060A1, “Treatment of Opioid Withdrawal” (Kinoxis Therapeutics Pty Ltd, priority 2019, published 2022)
Values joined by “and” are separate entries in the source; they are usually repeats but may differ in a detail not shown here. Identical values can stand only once. “Also recorded” adds a separate entry of the source.

Columns and labels:
C57BL/6 mice [1] = test: Open field locomotor activity test (Experiment 1.1); type: in vivo, mouse
Protocol: N=18 adult male C57BL/6 mice received either 0, 5 or 10 mg/kg CMPD1-2HCL (i.p.; n=6 per condition). Fifteen minutes after receiving their i.p. injection of CMPD1-2HCL mice were placed individually into a novel 40 (l)×40 (w)×40 (h) cm locomotor testing arena. Sessions were captured by overhead cameras and videos were analysed by using the automated behaviour tracking software CleverSys Topscan (CleverSys, Virginia, USA), which provided the distance travelled by each mouse in each 5 min time bin over the 60 minute locomotor testing session. Data were analysed by SPSS using mixed model ANOVA.

[2] = test system: c-fos protein expression in the brain; test: Naloxone-precipitated opioid withdrawal-induced c-fos protein expression in the brain (Example 2); type: in vivo, mouse; conditions: 10 mg/kg i.p.; 8 brain regions; 75 minutes after naloxone
Protocol: In this example, the ability of Compound 1 to inhibit naloxone-precipitated opioid withdrawal-induced c-fos protein expression in the brain was studied. C-fos is a protein marker of neural activation. Compound 1 was administered in dihydrochloride salt form (CMPD1-2HCL).
N=40 male C57BL/6 mice were assigned to one of the following four conditions:
Mice in the oxycodone (OXY) conditions received i.p. injections of oxycodone for 9 days with increasing doses of 9, 17.8, 23.7 and 33 mg/kg (twice daily on days 1-8, with dose increasing every other day). The morning and afternoon doses were separated by 7 h. Mice in the vehicle condition (VEH) received injections of vehicle saline instead of oxycodone. One-hour-and-forty-five minutes after the morning injection on day 9, mice were administered their i.p. dose of CMPD1-2HCL (10 mg/kg at an injection volume of […]) or VEH. Fifteen minutes later they received an i.p. injection of 10 mg/kg naloxone (OXY groups) or saline (VEH groups) to precipitate withdrawal.
75 minutes after their naloxone or saline injection, mice were euthanised by sodium pentobarbitone overdose, and intracardiac puncture perfusion fixation was performed with 4% paraformaldehyde, and brains were then collected for immunohistochemical processing.
Data were analysed by SPSS using two-way ANOVA and planned contrasts.

[3] = test system: naloxone precipitated oxycodone withdrawal in C57BL/6 mice; test: Gastrointestinal symptoms of opioid withdrawal: fecal boli and diarrhea (Example 3); type: in vivo, mouse; conditions: 10 mg/kg i.p.
Protocol: In this example, the ability of CMPD1-2HCL to inhibit the gastrointestinal symptoms of opioid withdrawal was assessed using a murine model.
Adult male C57BL/6 mice ([…]) were allocated to one of four conditions (n=10 per condition):
Mice in the oxycodone conditions (OXY) received i.p. injections of oxycodone for 5 days according to the schedule and doses set out in Table 7. The morning and afternoon doses were separated by 7 h. Mice in the vehicle condition received injections of vehicle saline instead of oxycodone. One-hour-and-forty-five minutes after the morning injection on day 5, mice were administered their i.p. dose of CMPD1-2HCL (10 mg/kg). Fifteen minutes later they received an i.p. injection of 10 mg/kg naloxone (oxycodone groups) or saline (vehicle group), and proceeded immediately to testing.
Testing involved placing mice individually into a 20 (l)×20 (w)×30 (h) cm arena for 30 min. The number of fecal boli were counted at the end of the session and whether or not the mouse had diarrhea.
Data were analysed using ANOVA and planned contrasts for fecal boli and Fisher's exact test for diarrhea.

[4] = test system: naloxone precipitated oxycodone withdrawal in C57BL/6 mice; test: Naloxone precipitated oxycodone withdrawal-induced jumping, two salt forms (Example 4, Experiment 2.1); type: in vivo, mouse; conditions: 7.3 mg/kg FBE i.p.; for Oxycodone withdrawal-induced jumping vs OXY_VEH: CMPD1-PO4 p<0.01, CMPD1-2HCL p<0.001; for Withdrawal-induced jumping, comparison of the two salt forms: OXY_CMPD1-PO4 vs OXY_2 HCL p=0.901
C57BL/6 mice [5] = test: Open field locomotor activity test (Experiment 1.1); type: in vivo, mouse; conditions: 5 mg/kg i.p.; time post dose 75-80; individual mice 7-12
[6] = test system: naloxone precipitated oxycodone withdrawal in C57BL/6 mice; test: Naloxone precipitated oxycodone withdrawal: jumping and paw tremors (Experiment 1.2); type: in vivo, mouse; conditions: for Number of jumps for each mouse in the 30 min test session / Total duration of paw tremors for each mouse in the 30 minute test session: oxycodone condition mice, individual mice
Protocol: Adult male C57BL/6 mice (N=40) were allocated to one of five conditions (n=8 per condition):
Mice in the oxycodone conditions received i.p. injections of oxycodone for 5 days according to the schedule and doses set out in Table 1. The morning and afternoon doses were separated by 7 h. Mice in the vehicle condition received injections of vehicle saline instead of oxycodone. One-hour-and-forty-five minutes after the morning injection on day 5, mice were administered their i.p. dose of CMPD1-2HCL. Fifteen minutes later they received an i.p. injection of 10 mg/kg naloxone (oxycodone groups) or saline (vehicle group), and proceeded immediately to testing.
Testing involved placing mice individually into a 20 (l)×20 (w)×30 (h) cm arena for 30 min. Sessions were captured via a side view high speed (120 fps), high resolution (4K) camera. Number of jumps and total duration of paw tremors were scored from the videos by an experienced experimenter blind to conditions.
Data were analysed by SPSS using oneway ANOVA and planned contrasts.

[7] = clinical trials; cited from earlier work

Cl.Cl.Cn1ncc2c1Nc1ccccc1NC2 [CMPD1-2HCL]
Distance travelled during time bin (C57BL/6 mice [1]; 5 mg/kg i.p., time post dose 15-20 (5 min bin), individual mice 7-12): 15043.46 mm and 20271.67 mm and 23636.81 mm and 18238.34 mm and 16051.42 mm and 16442.58 mm
Distance travelled during time bin (C57BL/6 mice [1]; 5 mg/kg i.p., time post dose 20-25, individual mice 7-12): 20386.17 mm and 13996.02 mm and 16449.1 mm and 11919.46 mm and 11756.3 mm and 10974.55 mm
Distance travelled during time bin (C57BL/6 mice [1]; 5 mg/kg i.p., time post dose 25-30, individual mice 7-12): 11089.15 mm and 11425.88 mm and 11764.23 mm and 8462.92 mm and 10127.95 mm and 8553.13 mm
Distance travelled during time bin (C57BL/6 mice [1]; 5 mg/kg i.p., time post dose 30-35, individual mice 7-12): 13221.16 mm and 7779.42 mm and 11134.18 mm and 8664.63 mm and 9823.55 mm and 4905.54 mm
Distance travelled during time bin (C57BL/6 mice [1]; 5 mg/kg i.p., time post dose 35-40, individual mice 7-12): 15282.34 mm and 6791.58 mm and 8208.55 mm and 11776.57 mm and 10597.55 mm and 5280.25 mm
Distance travelled during time bin (C57BL/6 mice [1]; 5 mg/kg i.p., time post dose 40-45, individual mice 7-12): 7068.09 mm and 9050.59 mm and 7493.64 mm and 9121.74 mm and 5308.25 mm and 6050.2 mm
Distance travelled during time bin (C57BL/6 mice [1]; 5 mg/kg i.p., time post dose 45-50, individual mice 7-12): 5367.28 mm and 6712.87 mm and 5587.1 mm and 5518.04 mm and 9993.79 mm and 5466.54 mm
Distance travelled during time bin (C57BL/6 mice [1]; 5 mg/kg i.p., time post dose 50-55, individual mice 7-12): 945.3 mm and 7073.77 mm and 10568.53 mm and 9463.89 mm and 5234.55 mm and 6665.74 mm
Distance travelled during time bin (C57BL/6 mice [1]; 5 mg/kg i.p., time post dose 55-60, individual mice 7-12): 3362.81 mm and 8088.81 mm and 11051.63 mm and 11843.34 mm and 6386.55 mm and 4645.85 mm
Distance travelled during time bin (C57BL/6 mice [1]; 5 mg/kg i.p., time post dose 60-65, individual mice 7-12): 6133.83 mm and 10365.45 mm and 10059.86 mm and 11154.54 mm and 8969.03 mm and 4893.44 mm
Distance travelled during time bin (C57BL/6 mice [1]; 5 mg/kg i.p., time post dose 65-70, individual mice 7-12): 5268.88 mm and 4809.55 mm and 6121.25 mm and 4100.88 mm and 9397.98 mm and 4757.22 mm
Effect on locomotor activity (distance travelled) (C57BL/6 mice [1]; 5 and 10 mg/kg i.p., main effect of dose p=0.392, time by dose interaction p=0.143): does not significantly impact locomotor activity; also recorded: does not supress locomotor activity
Distance travelled during time bin (C57BL/6 mice [1]; Table 3, 5 mg/kg, i.p., time post dose 35-40, individual mice 13-18): 11756.13 mm and 8046.38 mm (2×) and 12860.87 mm and 13271.28 mm and 10054.85 mm
Distance travelled during time bin (C57BL/6 mice [1]; Table 3, 5 mg/kg, i.p., time post dose 40-45, individual mice 13-18): 7682.41 mm and 2222.65 mm (2×) and 11152.11 mm and 12391.75 mm and 4683.51 mm
Distance travelled during time bin (C57BL/6 mice [1]; Table 3, 5 mg/kg, i.p., time post dose 45-50, individual mice 13-18): 11290.93 mm and 6482.48 mm (2×) and 10743.61 mm and 12658.5 mm and 8082.58 mm
Distance travelled during time bin (C57BL/6 mice [1]; Table 3, 5 mg/kg, i.p., time post dose 55-60, individual mice 13-18): 28970.94 mm and 12316.3 mm (2×) and 32680.43 mm and 27725.23 mm and 19894.04 mm
Distance travelled during time bin (C57BL/6 mice [1]; Table 3, 5 mg/kg, i.p., time post dose 60-65, individual mice 13-18): 17509.3 mm and 10864.14 mm (2×) and 28788.31 mm
Withdrawal induced neural activation (c-fos positive cells) [2]: significantly inhibited withdrawal induced neural activation
Number of mice suffering from diarrhea ([3]; Fisher's exact test): inhibited
Amount of fecal boli produced during the 30 min session ([3]; p<0.001 vs opioid withdrawal): significantly inhibited
Proportion of mice suffering from diarrhea ([3]; OXY condition, n=10, OXY, VEH 90%, VEH, VEH 0%): 30%
Oxycodone withdrawal-induced jumping vs OXY_VEH [4]: significantly inhibited
Withdrawal-induced jumping, comparison of the two salt forms [4]: did not differ significantly
Distance travelled during time bin (C57BL/6 mice [5]): 3441.42 mm and 8422.46 mm and 11136.92 mm and 9156.71 mm and 2402.89 mm and 1364.63 mm
Jumping relative to mice not undergoing oxycodone withdrawal (VEH 0CMPD1) ([6]; 2.5, 5, 10 mg/kg i.p., p<0.001, p<0.001, p=0.011): still showed elevated jumping
Oxycodone withdrawal-induced jumping vs OXCD 0CMPD1 ([6]; 2.5, 5, 10 mg/kg i.p., p=0.023, p=0.018, p<0.001): significantly inhibited
Dysphoric and somatic symptoms (jumping and paw tremors) of oxycodone withdrawal ([6]; 2.5-10 mg/kg i.p., conclusion): dose dependently inhibited
Paw tremors relative to mice not undergoing oxycodone withdrawal (VEH 0CMPD1) ([6]; 5 and 10 mg/kg i.p., p=0.204, p=0.4 (2.5 mg/kg p<0.01)): no longer had significantly elevated paw tremors
Oxycodone withdrawal-induced paw tremors vs OXCD 0CMPD1 ([6]; highest dose 10 mg/kg i.p., p=0.033 (2.5 mg/kg p=0.898; 5 mg/kg p=0.083)): significantly inhibited
Number of jumps for each mouse in the 30 min test session ([6]; 2.5 mg/kg i.p., 2.5 mg/kg): 86 and 52 and 58 and 50 (2×) and 31 and 92 and 68
Total duration of paw tremors for each mouse in the 30 minute test session ([6]; 2.5 mg/kg i.p., 2.5 mg/kg): 12.4 s and 2.3 s and 78.4 s and 48 s and 27.1 s and 20.4 s and 0.2 s and 0.4 s
Number of jumps for each mouse in the 30 min test session ([6]; 5 mg/kg i.p., 5 mg/kg): 51 and 35 and 61 and 48 (2×) and 30 and 136 and 67
Total duration of paw tremors for each mouse in the 30 minute test session ([6]; 5 mg/kg i.p., 5 mg/kg): 8.2 seconds and 21.4 seconds and 3 seconds (2×) and 18.5 seconds and 2.1 seconds and 3.2 seconds and 17 seconds
Number of jumps for each mouse in the 30 min test session ([6]; 10 mg/kg i.p., 10 mg/kg): 25 and 120 and 17 and 33 (2×) and 26 and 51 and 34
Total duration of paw tremors for each mouse in the 30 minute test session ([6]; 10 mg/kg i.p., 10 mg/kg): 9.9 seconds and 0 seconds (3×) and 6 seconds and 21.5 seconds and 3.3 seconds and 9.6 seconds

Cn1ncc2c1Nc1ccccc1NC2.O=P(O)(O)O [CMPD1-PO4]
Oxycodone withdrawal-induced jumping vs OXY_VEH [4]: significantly inhibited
Withdrawal-induced jumping, comparison of the two salt forms [4]: did not differ significantly

CC(Oc1c(Cl)cccc1Cl)C1=NCCN1 (stereo not drawn) [lofexidine]
Improvements in acute opioid withdrawal symptoms and treatment retention [7]: only modest improvements
Side effects [7]: hypotension, bradycardia and insomnia
